Measured values published in publication PMC7939391, “[4Fe-4S] cluster trafficking mediated by Arabidopsis mitochondrial ISCA and NFU proteins” (The Journal of Biological Chemistry, 2021).

Molecular target: T1, ACO2 (Arabidopsis thaliana, UniProt Q94A28)
T1 construct: untagged recombinant from pET15b (NcoI-XhoI), E. coli BL21(DE3); forward primer encodes start MASEHSY (transit peptide removed)
T1 sequence (Q94A28 98-995): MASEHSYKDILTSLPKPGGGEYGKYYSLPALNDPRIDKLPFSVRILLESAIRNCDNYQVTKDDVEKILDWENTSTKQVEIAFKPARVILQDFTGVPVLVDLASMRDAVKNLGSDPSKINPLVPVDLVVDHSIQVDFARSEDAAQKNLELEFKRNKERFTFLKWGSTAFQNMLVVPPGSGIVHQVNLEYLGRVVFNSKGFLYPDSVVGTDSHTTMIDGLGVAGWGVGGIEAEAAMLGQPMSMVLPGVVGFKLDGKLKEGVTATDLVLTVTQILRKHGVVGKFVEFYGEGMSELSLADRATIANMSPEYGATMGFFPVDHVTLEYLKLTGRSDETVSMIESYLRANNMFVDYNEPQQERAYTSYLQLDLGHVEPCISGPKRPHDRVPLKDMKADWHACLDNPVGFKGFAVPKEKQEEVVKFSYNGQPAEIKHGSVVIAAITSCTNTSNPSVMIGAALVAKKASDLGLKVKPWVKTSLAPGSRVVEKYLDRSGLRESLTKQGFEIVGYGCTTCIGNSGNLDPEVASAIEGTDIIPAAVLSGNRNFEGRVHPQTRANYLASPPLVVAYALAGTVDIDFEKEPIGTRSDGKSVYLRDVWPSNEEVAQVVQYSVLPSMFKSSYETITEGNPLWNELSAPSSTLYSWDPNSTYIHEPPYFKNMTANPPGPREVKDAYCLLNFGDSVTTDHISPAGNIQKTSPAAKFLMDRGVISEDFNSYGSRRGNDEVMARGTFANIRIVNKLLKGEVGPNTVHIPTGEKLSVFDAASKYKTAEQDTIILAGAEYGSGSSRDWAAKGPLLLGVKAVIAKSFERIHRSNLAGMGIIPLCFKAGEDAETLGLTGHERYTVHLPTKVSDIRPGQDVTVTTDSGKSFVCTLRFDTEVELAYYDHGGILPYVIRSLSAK
Assay: absorbance at […] nm
Type: biochemical
Settings: from citrate or isocitrate; [4Fe-4S]-loaded enzyme

## O=C(O)/C=C(/CC(=O)O)C(=O)O [cis-aconitate]
  absorbance at 240 nm: following the formation of cis-aconitate from citrate or isocitrate
